Measured values as given in PubChem BioAssay AID624129 (Sanford-Burnham Center for Chemical Genomics, 2012).
Activity calls are given as the source filed them. The rule behind the calls is not given here.

Legend:
Assay in all cases: potency against CXCR6 with APJ panel – cell-based, beta-arrestin, DiscoveRx, uHTS hits, dose response (AID 624129)
[1] = biological target: Apelin receptor (Homo sapiens) (UniProt P35414); settings: CXCR6 beta-arrestin (DiscoveRx) antagonist cell assay, APJ
[2] = biological target: Beta-galactosidase (Escherichia coli) (UniProt Q8VNN2); settings: CXCR6 beta-arrestin (DiscoveRx) antagonist cell assay, b-galactosidase
[3] = biological target: C-C chemokine receptor type 6 (Homo sapiens) (UniProt P51684); settings: CXCR6 beta-arrestin (DiscoveRx) antagonist cell assay
[4] = biological target: C-X-C chemokine receptor type 6 (Homo sapiens) (UniProt O00574); settings: CXCR6 beta-arrestin (DiscoveRx) antagonist cell assay
[5] = dose range 1, mean IC50 across replicates
[6] = CCR6, dose range 1, mean IC50 across replicates
[7] = CXCR6, dose range 1, mean IC50 across replicates
[8] = CXCR6, run 1, dose range 2, at 80 µM (top of the series)
[9] = CXCR6, run 2, dose range 1, at 79 µM (top of the series)

Sequence of C-X-C chemokine receptor type 6 (Homo sapiens) (O00574 whole entry, looked up): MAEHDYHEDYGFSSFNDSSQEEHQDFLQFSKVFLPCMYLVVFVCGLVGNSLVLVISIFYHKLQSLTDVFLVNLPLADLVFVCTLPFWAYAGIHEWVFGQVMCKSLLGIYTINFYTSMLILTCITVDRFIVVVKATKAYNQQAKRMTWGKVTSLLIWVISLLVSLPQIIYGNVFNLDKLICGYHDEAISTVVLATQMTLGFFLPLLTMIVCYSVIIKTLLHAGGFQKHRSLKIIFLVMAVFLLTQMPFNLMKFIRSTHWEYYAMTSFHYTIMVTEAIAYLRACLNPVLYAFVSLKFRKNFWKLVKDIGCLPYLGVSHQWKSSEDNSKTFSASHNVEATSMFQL
Sequence of Beta-galactosidase (Escherichia coli) (Q8VNN2 whole entry, looked up): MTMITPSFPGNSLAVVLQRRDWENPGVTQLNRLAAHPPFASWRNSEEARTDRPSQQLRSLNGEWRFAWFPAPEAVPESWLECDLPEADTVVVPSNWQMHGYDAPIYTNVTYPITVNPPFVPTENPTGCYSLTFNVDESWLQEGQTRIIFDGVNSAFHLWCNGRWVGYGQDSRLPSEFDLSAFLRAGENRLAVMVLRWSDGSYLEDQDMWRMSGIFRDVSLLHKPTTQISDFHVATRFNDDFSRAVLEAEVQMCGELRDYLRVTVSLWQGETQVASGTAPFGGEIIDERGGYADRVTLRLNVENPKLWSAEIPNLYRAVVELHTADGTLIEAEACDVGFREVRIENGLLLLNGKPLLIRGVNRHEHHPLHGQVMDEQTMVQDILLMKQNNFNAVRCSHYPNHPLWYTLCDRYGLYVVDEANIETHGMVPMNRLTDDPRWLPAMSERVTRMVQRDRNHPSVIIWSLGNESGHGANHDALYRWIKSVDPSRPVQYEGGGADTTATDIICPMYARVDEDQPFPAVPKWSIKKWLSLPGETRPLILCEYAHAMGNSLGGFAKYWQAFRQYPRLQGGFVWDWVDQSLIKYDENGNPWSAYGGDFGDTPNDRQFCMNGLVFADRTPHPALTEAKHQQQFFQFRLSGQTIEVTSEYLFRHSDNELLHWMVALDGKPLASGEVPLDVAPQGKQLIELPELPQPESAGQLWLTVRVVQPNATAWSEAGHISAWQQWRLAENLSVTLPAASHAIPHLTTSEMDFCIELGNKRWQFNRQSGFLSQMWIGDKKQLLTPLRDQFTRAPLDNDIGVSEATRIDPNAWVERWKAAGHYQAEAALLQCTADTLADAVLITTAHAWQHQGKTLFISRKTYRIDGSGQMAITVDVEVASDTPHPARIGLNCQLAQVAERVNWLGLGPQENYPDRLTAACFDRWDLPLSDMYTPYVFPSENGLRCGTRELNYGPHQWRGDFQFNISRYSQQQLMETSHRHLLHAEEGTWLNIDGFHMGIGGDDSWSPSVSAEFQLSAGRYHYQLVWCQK

IC50 ([1]; dose range 1) | IC50 [1, 5] | IC50 ([1]; run 2, dose range 1) | IC50 ([1]; run 3, dose range 1) | IC50 ([2]; dose range 1) | IC50 [2, 5] | IC50 ([3]; CCR6, dose range 1) | IC50 [3, 6] | IC50 ([3]; CCR6, run 2, dose range 1) | IC50 ([4]; CXCR6, dose range 1) | IC50 [4, 7] | IC50 ([4]; CXCR6, run 1, dose range 2) | IC50 ([4]; CXCR6, run 2, dose range 1) | IC50 ([4]; CXCR6, run 2, dose range 2) | inhibition ([4]; CXCR6, run 1, dose range 2, at 20 µM (top of the series)) | inhibition [4, 8] | activity value [4] | outcome ([4]; CXCR6, dose range 1) | inhibition [4, 9] | inhibition ([4]; CXCR6, run 2, dose range 1, at 39.5 µM (top of the series)) | SMILES
16.2 µM | 16 µM | 15.3 µM | 16.4 µM | > 80 µM (inactive) | > 80 µM | 11.6 µM | 11 µM | 10.3 µM | 10.8 µM | 10.9 µM | 10.5 µM | 11.5 µM | 10.8 µM |  |  |  |  |  |  | CCN(c1ccccc1)S(=O)(=O)c1ccc(NC(=O)c2nc(S(C)(=O)=O)ncc2Cl)cc1
 | 4.7 µM | > 80 µM | 4.7 µM | > 80 µM (inactive) | > 80 µM | 5.96 µM | 7.08 µM | 8.19 µM | 3.29 µM | 5.31 µM |  | 7.32 µM |  | 67.7% |  |  |  |  |  | O=C1N[C@H](Cc2ccccc2)COC(=O)[C@H](Cc2ccc(F)cc2)CC/C=C/C[C@H]1CC(=O)N(CCO)Cc1ccccc1
 | > 80 µM | > 80 µM | > 80 µM | > 80 µM (inactive) | > 80 µM |  | > 80 µM | > 80 µM | > 80 µM (inactive) | > 80 µM |  | > 80 µM |  |  | -35.8% |  |  |  |  | CC(=O)NC(=S)Nc1sc2c(c1C(N)=O)CCC(C)C2 (stereo not given)
0.364 µM | 0.281 µM | 0.236 µM | 0.242 µM | > 80 µM (inactive) | > 80 µM | 0.29 µM | 0.271 µM | 0.251 µM | 0.476 µM | 0.435 µM |  | 0.395 µM |  |  | 113% |  |  |  |  | Cc1ccc(C(=O)CNc2ccc(F)cc2)cc1
6.61 µM | 9.3 µM | 9.95 µM | 11.3 µM | 7.82 µM | 7.82 µM | 4.6 µM | 4.33 µM | 4.05 µM | 8.37 µM | 5.48 µM | 3.14 µM | 4.54 µM | 5.88 µM |  |  |  |  |  |  | COc1ccc(CN2C(=O)C(Cc3ccccc3)Nc3ncnc(N4CCN(c5ccccc5)CC4)c32)cc1 (stereo not given)
> 80 µM (inactive) | > 80 µM | > 80 µM | > 80 µM | > 80 µM (inactive) | > 80 µM | 2.58 µM | 12.9 µM | 23.2 µM | inactive | 11.3 µM | 3.9 µM | > 80 µM | 3.24 µM |  |  |  |  |  |  | O=[N+]([O-])c1c(NCCCO)cc(Sc2ccc(Cl)cc2)c2nonc12
 | > 80 µM | > 80 µM | > 80 µM | > 80 µM (inactive) | > 80 µM | 7.09 µM | 9.8 µM | 12.5 µM | inactive | 24.8 µM | 6.21 µM | 53 µM | 6.06 µM |  |  |  |  |  |  | Cc1cc(Cl)n2c(nc3cc(F)c(F)cc32)c1C#N
 | > 80 µM | > 80 µM | > 80 µM | > 80 µM (inactive) | > 80 µM |  | > 80 µM | > 80 µM | > 80 µM (inactive) | > 80 µM |  | > 80 µM |  |  | 4.14% |  |  |  |  | COc1ccc(Nc2ccc([N+](=O)[O-])c3nonc23)c(OC)c1
10 µM | 10 µM | > 80 µM | > 80 µM | > 80 µM (inactive) | > 80 µM | 8.24 µM | 9.45 µM | 10.7 µM | > 80 µM (inactive) | > 80 µM |  | > 80 µM |  |  | -50.3% |  |  |  |  | COc1ccc(N2C(=O)CC(Sc3nnnn3-c3ccc(F)cc3)C2=O)cc1 (stereo not given)
9.66 µM | 8.26 µM | 7.57 µM | 7.54 µM | > 80 µM (inactive) | > 80 µM | 5.19 µM | 5.45 µM | 5.72 µM | 5.72 µM | 6.19 µM | 6.35 µM | 5.95 µM | 6.77 µM |  |  |  |  |  |  | C=C1C(=O)C23CCC4C(C)(C(=O)OC)CCCC4(C)C2CCC1(O)C3 (stereo not given)
6.33 µM | 5.69 µM | 5.06 µM | 5.67 µM | > 80 µM (inactive) | > 80 µM | 3.27 µM | 3.72 µM | 4.17 µM | 4.73 µM | 4.87 µM | 4.61 µM | 5.18 µM | 4.96 µM |  |  |  |  |  |  | COc1ccc(C(=O)/C(=C\c2ccco2)N2C=CC=CC2=C(C#N)C#N)cc1
3.95 µM | 4.26 µM | 4.72 µM | 4.11 µM | > 80 µM (inactive) | > 80 µM | 4.18 µM | 5.05 µM | 5.92 µM | 6.91 µM | 4.34 µM | 3.34 µM | 4.25 µM | 2.87 µM |  |  |  |  |  |  | O=C(CSc1cccc2cccnc12)N/N=C/c1cccnc1
5.02 µM | 5.55 µM | 5.84 µM | 5.8 µM | > 80 µM (inactive) | > 80 µM | 4.87 µM | 4.8 µM | 4.74 µM | 6.29 µM | 6.61 µM | 6.87 µM | 6.54 µM | 6.76 µM |  |  |  |  |  |  | CCS(=O)(=O)c1ncc(Cl)c(C(=O)Nc2ccc(S(=O)(=O)N(C)c3ccccc3)cc2)n1
31.8 µM | 24.9 µM | 18.1 µM | > 80 µM | > 80 µM (inactive) | > 80 µM | 43.4 µM | 38.8 µM | 34.2 µM | inactive | 55.9 µM |  | 33.6 µM |  |  | 82.8% |  |  |  |  | CN(C)c1nc(=NCc2ccco2)ss1
4.79 µM | 3.9 µM | 3.2 µM | 3.71 µM | > 80 µM (inactive) | > 80 µM | 2.91 µM | 2.95 µM | 2.99 µM | 3.57 µM | 3.74 µM | 3.95 µM | 3.64 µM | 3.79 µM |  |  |  |  |  |  | N#CC(C#N)=C1C=CC=CN1/C(=C\c1ccco1)C(=O)c1ccccc1
13.2 µM | 17.6 µM | 17.5 µM | 22.2 µM |  |  | 11.5 µM | 27 µM | 42.4 µM | inactive | 17.8 µM |  | 17.3 µM |  |  | 51.2% | 80 µM (inactive) |  |  |  | On1ccccc1=S
 |  |  |  |  |  |  |  |  |  | 19.6 µM | 17.7 µM |  | 21.6 µM |  |  |  | inactive | 92.1% |  | O=C1c2cccc3c([N+](=O)[O-])ccc(c23)C(=O)N1c1ccc(Cl)cn1
 |  |  |  |  |  |  |  |  |  | 47.3 µM | 36.1 µM |  | 58.4 µM |  |  |  | inactive | 70.9% |  | COc1cc(C2C(C#N)=C(N)Oc3n[nH]c(-c4cccs4)c32)cc(OC)c1O (stereo not given)
 |  |  |  |  |  |  |  |  |  | 30.5 µM | 37.3 µM |  | 23.7 µM |  |  |  | inactive | 50.8% |  | CC1=C(C)CC2C(C1)C(=O)c1ccc(Br)cc1S2(=O)=O (stereo not given)
 |  |  |  |  |  |  |  |  |  | 13.3 µM | 12.4 µM |  | 14.2 µM |  |  |  | inactive | 113% |  | CS(=O)(=O)c1ncc(Cl)c(C(=O)Nc2ccc(OC(F)F)cc2)n1
 |  |  |  |  |  |  |  |  |  | 13.1 µM | 12.4 µM |  | 13.8 µM |  |  |  | inactive |  | 74.7% | CCN(CC(=O)NC(C)(C)C)Cc1nc2c(Br)cc(Br)cc2c(=O)[nH]1
 |  |  |  |  |  |  |  |  |  | 12.6 µM | 11.7 µM |  | 13.4 µM |  |  |  | inactive | 65.4% |  | C=CCN(CC=C)C(=S)NC(=O)c1ccc(C)c(Br)c1
 |  |  |  |  |  |  |  |  |  | 13.7 µM | 10.8 µM |  | 16.5 µM |  |  |  | inactive | 91.8% |  | Cc1ccc(O)c(C(=O)CC(=O)c2ccc(Cl)cc2)c1
 |  |  |  |  |  |  |  |  |  | 50.5 µM | 50.5 µM |  | > 79 µM |  |  |  | inactive | 61.7% |  | CCCc1cc(=O)oc2cc(OC(=O)CN3C(=O)NC4(CCCC4)C3=O)ccc12
 |  |  |  |  |  |  |  |  |  | 11.8 µM | 11.1 µM |  | 12.6 µM |  |  |  | inactive | 114% |  | N#Cc1c([N+](=O)[O-])cc([N+](=O)[O-])cc1S(=O)(=O)Cc1ccccc1
 |  |  |  |  |  |  |  |  |  | 19.1 µM | 18 µM |  | 20.2 µM |  |  |  | inactive | 108% |  | CC1(C)Cc2ccccc2C(NNC(=O)c2ccccn2)=N1
